Results taken from BindingDB's records for doi:10.1021/jm00046a020 (Purdue University, 1994).

Molecular target: Tyrosine-protein kinase transforming protein Src (Rous sarcoma virus)
Test: Inhibition of in vitro protein-tyrosine kinase activity of p60v-src enzyme in presence of 5 uM ATP.

SMILES	IC50
Nc1ccc(-c2cc(=O)c3cc(N)c(O)cc3o2)cc1 [6-Amino-2-(4-amino-phenyl)-7-hydroxy-chromen-4-one]	> 50 µM
Nc1ccc(-c2cc(O)c3c(=O)c(N)ccc-3o2)cc1 [6-Amino-2-(4-amino-phenyl)-5-hydroxy-chromen-4-one]	> 50 µM
Nc1ccc(-c2cc(=O)c3cc(N)ccc3o2)cc1 [6-Amino-2-(4-amino-phenyl)-chromen-4-one]	28.8 µM
Nc1ccc(-c2cc(=O)c3ccc(O)c(N)c3o2)cc1 [8-Amino-2-(4-amino-phenyl)-7-hydroxy-chromen-4-one]	> 50 µM
Nc1cccc(-c2cc(=O)c3cc(N)ccc3o2)c1 [6-Amino-2-(3-amino-phenyl)-chromen-4-one]	> 50 µM
Nc1ccc(-c2cc(=O)c3c(O)ccc(N)c3o2)cc1 [8-Amino-2-(4-amino-phenyl)-5-hydroxy-chromen-4-one]	> 50 µM
Nc1ccc(-c2cc(=O)c3cc(O)cc(N)c3o2)cc1 [8-Amino-2-(4-amino-phenyl)-6-hydroxy-chromen-4-one]	> 50 µM
COc1cc(N)c2oc(-c3ccc(N)cc3)cc(=O)c2c1 [8-Amino-2-(4-amino-phenyl)-6-methoxy-chromen-4-one]	> 50 µM
Nc1cccc(-c2cc(=O)c3c(N)c(O)c(N)cc3o2)c1 [5,7-Diamino-2-(3-amino-phenyl)-6-hydroxy-chromen-4-one]	38.4 µM
Nc1ccc(-c2cc(=O)c3cc(N)c(O)c(N)c3o2)cc1 [6,8-Diamino-2-(4-amino-phenyl)-7-hydroxy-chromen-4-one]	> 50 µM
Nc1ccc(-c2cc(=O)c3cccc(N)c3o2)cc1 [8-Amino-2-(4-amino-phenyl)-chromen-4-one]	> 50 µM
Nc1ccc(-c2cc(=O)c3c(N)c(O)c(N)cc3o2)cc1 [5,7-Diamino-2-(4-amino-phenyl)-6-hydroxy-chromen-4-one]	> 50 µM
Nc1ccc(-c2cc(=O)c3cc(N)cc(N)c3o2)cc1 [6,8-Diamino-2-(4-amino-phenyl)-chromen-4-one]	> 50 µM
Nc1cccc(-c2cc(=O)c3cc(N)c(O)cc3o2)c1 [6-Amino-2-(3-amino-phenyl)-7-hydroxy-chromen-4-one]	> 50 µM
